In article PMC2916045 (Journal of the American Chemical Society, 2010):
“Also recorded” adds a separate entry of the source.

How the values were obtained:
[1] = test system: primary cortical neuron cultures; assay: HCA oxidative stress neuroprotection assay
α-tubulin acetylation = details: at 5 µM; ref 29 (Parmigiani et al.); cited from earlier work
[2] = test system: α-tubulin hyperacetylation, corresponding to HDAC6 inhibition; assay: α-tubulin hyperacetylation in cells; details: for α-tubulin hyperacetylation versus histone hyperacetylation: at 2.5 µM
[3] = test system: primary cortical neuron cultures; assay: Neuronal toxicity of compound alone; type: cell-based, Sprague-Dawley rats; details: all concentrations tested, without HCA, 24 h, MTT
[4] = test system: histone hyperacetylation, corresponds to class I HDAC inhibition; assay: histone hyperacetylation in cells; details: at 10 µM

SMILES	neuroprotection in HCA-induced neurodegeneration assay ([1]; at 0.5 µM, HCA 5 mM, 24 h, MTT)	neurotoxicity in HCA-induced neurodegeneration assay ([1]; at concentrations higher than 0.5 µM, protection declined)	α-tubulin acetylation (α-tubulin acetylation)	α-tubulin hyperacetylation versus histone hyperacetylation [2]	neuronal toxicity when tested alone [3]	in vitro ADME properties (in vitro ADME properties)	concentration at which protection against HCA-induced neuronal cell death starts ([1]; HCA 5 mM, 24 h, MTT) [µM]	protection against HCA-induced neuronal cell death (glutathione depletion-induced oxidative stress) ([1]; HCA 5 mM, 24 h, MTT, concentration series)	protection against HCA-induced neuronal cell death ([1]; at 10 µM, HCA 5 mM, 24 h, MTT)	levels of acetylated α-tubulin ([2]; primary cortical neuron cultures)	histone hyperacetylation [4]
CC(/C=C/C(=O)NO)=C\[C@@H](C)C(=O)c1ccc(N(C)C)cc1 [TSA, trichostatin A, reference compound]	moderately neuroprotective	dose-dependant neurotoxicity									
O=C(CCCCCCC(=O)Nc1ccc([C@H]2O[C@@H](CSc3nc(-c4ccccc4)c(-c4ccccc4)o3)C[C@@H](c3ccc(CO)cc3)O2)cc1)NO [Tubacin, reference compound]			induces α-tubulin acetylation	preferentially induced α-tubulin hyperacetylation							
CN1CCc2c(c3ccccc3n2Cc2ccc(C(=O)NO)cc2)C1.O=C(O)C(F)(F)F [compound 6, Tubastatin A]				preferentially induced α-tubulin hyperacetylation	exhibited no toxicity; also recorded: no neuronal toxicity	favorable in vitro ADME properties	5	dose-dependent protection	near complete protection	induce elevated levels of acetylated α-tubulin	Slight induction of histone hyperacetylation
